Key:
[1] = tested on: C2C12 myoblasts; experiment: C2C12 myoblast differentiation, fusion index by cytoimmunofluorescence; format: cell-based, Mouse; conditions: 5 days in differentiation medium
Description: (§1) Mouse myoblasts of the C2C12 cell line (ATCC) were seeded at a plating density of 7000 cells/cm2 in 6-well plates. They were grown in DMEM high glucose (4.5g/l) supplemented with gentamycin (50 µg/mL), amphotericin (50 µg/mL), and fetal calf serum (10%). Terminal differentiation was induced at cell confluence by lowering the medium serum concentration (0.5%).
(§2) When indicated, FuFA-F2 was added to the culture medium at the indicated concentration. For the differentiation studies, FuFA-F2 was added at the confluence at the same time as the change in media condition. Three doses of FuFA-F2 were studied at a final concentration of 1, 10, or 50 µM. Human insulin was used at a concentration of 100 nM.
Cytoimmunofluorescence myoblast differentiation was assessed by observation of morphological changes and accumulation of muscle-specific markers. After methanol fixation and three washes with PBS-gelatin (0.2%), cells were labeled with an antibody raised against Troponin T (T6277, Sigma, diluted at 1:50) (Sigma-Aldrich, Saint-Quentin Fallavier, France). Nuclei were stained with Hoechst 33258 (1 µg/mL). To assess the extent of differentiation, the fusion index (percentage of nuclei incorporated into myotubes relative to the total number of nuclei) was calculated 120 h after adding the differentiation medium. Nuclei were counted on 10 images/dish using ImageJ software. […]

[2] = tested on: AMP activated protein kinase (AMPK); experiment: AMPK phosphorylation by Western blot in C2C12 myotubes; format: cell-based, Mouse; conditions: whatever the dose
Description: as §1, §2
Protein levels were assessed by Western blotting. Total proteins were measured using the Bio-Rad protein assay (Hercules, CA, USA) according to the manufacturer's instructions. […]
AMP activated protein kinase (AMPK) is a crucial cellular energy sensor protein and is activated when intracellular ATP level decreases to regulate autophagy initiation (Hardie et al., 2012, Nat Rev Mol Cell Bio, Vol. 13 (4) : 251-262). […] The autophagy-related signaling was further evaluated by measuring the MTORC1 mediated phosphorylation […] at Ser757 which disrupts the interaction between ULK1 and AMPK. […] Therefore, the autophagic flux was assessed by measuring the conversion of LC3-I to LC3-II, through lipidation.

## CCCCCc1cc(C)c(CCCCCCCCC(=O)O)o1 [FuFA-F2]
[1]; 50 µM, 57% for control, p<0.05
  myoblast fusion index: 61%
[1]; 1 and 10 µM (all doses except 50 µM)
  myoblast fusion index: no significant effects
[2]
  Activation level of AMPK, phosphorylation at Thr172: significantly decreased

Source: EP4385508A1, “FURAN FATTY ACIDS FOR ENHANCING MUSCLE MASS” (Centre de Coopération Internationale en Recherche …, priority 2022, dated 2024)
